# Test system: hippocampal transcripts (mitochondrial pathway genes and genes associated with neurological function)
# Assay: transcriptome examination using RNA-Seq, hippocampus
# Type: in vivo, rat
# Text: Transcriptome Examination Using RNA-Seq Upon MARCKS Peptide Decoy Treatment
# Following sacrifice, the left hippocampus was utilized for genome-wide expression profiling. […] These included Adcyap1 with fold change (FC) of 1.5, and p=0.029, Tiam1 with FC of −1.5 and p=0.028, and Filip1 with FC of −1.75 and p=0.032 (Table 1). The RT-PCR validation of the fold change of FILIP1 and Tiam1 is shown in Table 2 and Table 3, respectively.
# Table 4 disclosed herein provides the major pathways in mitochondria altered in the MARCKS peptide decoy treated animals. Mitochondrial NADH dehydrogenase is a key enzyme in the oxidative phosphorylation pathway in the mitochondria. Mitochondrially encoded cytochrome c oxidase I (MT-CO1), also known as cytochrome c oxidase I (COX1), is a protein that is found in mitochondria. Cytochrome c oxidase is the component of the respiratory chain that catalyzes the reduction of oxygen to water. MT-CO1 is associated with aging. Mutations in the human MT-CO1 gene have been associated with several diseases, including neurodegenerative diseases, such as late-onset Alzheimer disease. Cytochrome b (mt-cyb) is a component of the ubiquinol-cytochrome c reductase complex (complex III or cytochrome b-c1 complex), which is a respiratory chain that generates an electrochemical potential coupled to ATP synthesis. ATP synthase F0 subunit 6 (or subunit/chain A) is a subunit of F0 complex of transmembrane F-type ATP synthase. This subunit is a key component of the proton channel, and may play a direct role in the translocation of protons across the membrane. ATP6 is a gene associated with neuropathy, ataxia, and retinitis pigmentosa. mt-ATP8 is another subunit involved in ATP biosynthetic process.
# Table 5 provides the list of the genes that are directly or indirectly associated with neurological function and are with significant fold change in peptide decoy treated animals in comparison to the controls.
# [1] = locus chrM: 9450-9798, vehicle 617.42
substance,measurement,setting,value
SEQ ID NO: 1: fusion peptide including a TAT protein transduction domain and residues surrounding two known serine phosphorylation targets (Ser159 and Ser163) within MARCKS (YGRKKRRQRRRCKRFSFKKSFKLSGFSFKK; TAT MARCKS fusion),"Ln (Fold Change) (M/V), Calm3",locus chr1: 77244168-77252808,1.894
same,"MARCKS FPKM, Calm3","locus chr1: 77244168-77252808, vehicle 856.54",1621.94 FPKM
same,"Ln (Fold Change) (M/V), Fth1",locus chr1: 212430422-212432741,1.397
same,"MARCKS FPKM, Fth1","locus chr1: 212430422-212432741, vehicle 354.58",495.44 FPKM
same,"Ln (Fold Change) (M/V), P97600_RAT",locus chr1: 249369571-249369889,0.7544
same,"MARCKS FPKM, P97600_RAT","locus chr1: 249369571-249369889, vehicle 492.68",371.65 FPKM
same,"Ln (Fold Change) (M/V), Selt",locus chr2: 147913244-147929296,0.5377
same,"MARCKS FPKM, Selt","locus chr2: 147913244-147929296, vehicle 214.44",115.30 FPKM
same,"Ln (Fold Change) (M/V), Snap25",locus chr3: 124860288-124894636,0.8176
same,"MARCKS FPKM, Snap25","locus chr3: 124860288-124894636, vehicle 750.47",613.59 FPKM
same,"Ln (Fold Change) (M/V), Ywhab",locus chr3: 154926026-155140469,0.5137
same,"MARCKS FPKM, Ywhab","locus chr3: 154926026-155140469, vehicle 131.57",67.59 FPKM
same,"Ln (Fold Change) (M/V), Sdcbp",locus chr5: 19822457-19849209,0.666
same,"MARCKS FPKM, Sdcbp","locus chr5: 19822457-19849209, vehicle 131.61",87.65 FPKM
same,"Ln (Fold Change) (M/V), Rraga",locus chr5: 105659673-105661250,0.4798
same,"MARCKS FPKM, Rraga","locus chr5: 105659673-105661250, vehicle 433.02",207.77 FPKM
same,"Ln (Fold Change) (M/V), HPCA_RAT",locus chr5: 148268061-148276223,2.229
same,"MARCKS FPKM, HPCA_RAT","locus chr5: 148268061-148276223, vehicle 141.44",315.32 FPKM
same,"Ln (Fold Change) (M/V), RTN1_RAT",locus chr6: 94397064-94426283,1.726
same,"MARCKS FPKM, RTN1_RAT","locus chr6: 94397064-94426283, vehicle 842.08",1453.43 FPKM
same,"Ln (Fold Change) (M/V), Tuba1b",locus chr7: 137706855-137709839,0.5387
same,"MARCKS FPKM, Tuba1b","locus chr7: 137706855-137709839, vehicle 219.23",118.09 FPKM
same,"Ln (Fold Change) (M/V), Ywhae",locus chr10: 63072127-63109833,0.6546
same,"MARCKS FPKM, Ywhae","locus chr10: 63072127-63109833, vehicle 892.66",584.35 FPKM
same,"Ln (Fold Change) (M/V), Aldoc",locus chr10: 64308825-64312415,0.5322
same,"MARCKS FPKM, Aldoc","locus chr10: 64308825-64312415, vehicle 140.11",74.57 FPKM
same,"Ln (Fold Change) (M/V), Ndrg2",locus chr15: 27338551-27347196,0.4224
same,"MARCKS FPKM, Ndrg2","locus chr15: 27338551-27347196, vehicle 142.86",60.35 FPKM
same,"Ln (Fold Change) (M/V), Calm-ps2",locus chr15: 64161641-64162753,0.7792
same,"MARCKS FPKM, Calm-ps2","locus chr15: 64161641-64162753, vehicle 383.97",299.19 FPKM
same,"Ln (Fold Change) (M/V), Gpm6a",locus chr16: 39670749-39783384,0.5709
same,"MARCKS FPKM, Gpm6a","locus chr16: 39670749-39783384, vehicle 311.49",177.84 FPKM
same,"Ln (Fold Change) (M/V), Slc25a4",locus chr16: 49353475-49357271,1.571
same,"MARCKS FPKM, Slc25a4","locus chr16: 49353475-49357271, vehicle 243.91",383.20 FPKM
same,"Ln (Fold Change) (M/V), Mt3",locus chr19: 11284554-11286402,1.316
same,"MARCKS FPKM, Mt3","locus chr19: 11284554-11286402, vehicle 301.07",396.12 FPKM
same,"Ln (Fold Change) (M/V), Non-Annotated",locus chrM: 67-1025,0.8288
same,"MARCKS FPKM, Non-Annotated","locus chrM: 67-1025, vehicle 69491.10",57596.80 FPKM
same,"Ln (Fold Change) (M/V), Non-Annotated",locus chrM: 1093-2664,0.6921
same,"MARCKS FPKM, Non-Annotated","locus chrM: 1093-2664, vehicle 53178.50",36802.40 FPKM
same,"Ln (Fold Change) (M/V), Mitochondrial NADH dehydrogenase subunit 1 mt-nd1",locus chrM: 2739-3831,0.7838
same,"MARCKS FPKM, Non-Annotated","locus chrM: 2739-3831, vehicle 51.90",0.00 FPKM
same,"MARCKS FPKM, Non-Annotated","locus chrM: 2739-3831, vehicle 126.72",0.00 FPKM
same,"MARCKS FPKM, Mitochondrial NADH dehydrogenase subunit 1 mt-nd1","locus chrM: 2739-3831, vehicle 1879.89",1473.47 FPKM
same,"Ln (Fold Change) (M/V), Non-Annotated","locus chrM: 2739-3831, vehicle FPKM 51.90",0
same,"Ln (Fold Change) (M/V), Non-Annotated","locus chrM: 2739-3831, vehicle FPKM 126.72",0
same,"Ln (Fold Change) (M/V), Mitochondrial NADH dehydrogenase subunit 2 mt-nd2",locus chrM: 3903-5008,0.5713
same,"MARCKS FPKM, Mitochondrial NADH dehydrogenase subunit 2 mt-nd2","locus chrM: 3903-5008, vehicle 1965.45",1122.94 FPKM
same,"Ln (Fold Change) (M/V), Cytochrome c oxidase subunit I mt-co1",locus chrM: 5322-6933,0.7397
same,"Ln (Fold Change) (M/V), Non-Annotated",locus chrM: 5322-6933,0
same,"MARCKS FPKM, Non-Annotated","locus chrM: 5322-6933, vehicle 321.91",0.00 FPKM
same,"MARCKS FPKM, Cytochrome c oxidase subunit I mt-co1","locus chrM: 5322-6933, vehicle 9734.89",7200.89 FPKM
same,"Ln (Fold Change) (M/V), Cytochrome c oxidase subunit 2 mt-co2",locus chrM: 7005-7689,0.6512
same,"MARCKS FPKM, Cytochrome c oxidase subunit 2 mt-co2","locus chrM: 7005-7689, vehicle 5773.44",3759.79 FPKM
same,"Ln (Fold Change) (M/V), ATP synthase F0 subunit 6 mt-ATP6",locus chrM: 7757-9382,0.5529
same,"Ln (Fold Change) (M/V), ATP synthase F0 subunit 8 mt-ATP8",locus chrM: 7757-9382,0.7137
same,"Ln (Fold Change) (M/V), Cytochrome c oxidase subunit 3 mt-co3",locus chrM: 7757-9382,0.5326
same,"MARCKS FPKM, ATP synthase F0 subunit 6 mt-ATP6","locus chrM: 7757-9382, vehicle 3257.55",1801.13 FPKM
same,"MARCKS FPKM, ATP synthase F0 subunit 8 mt-ATP8","locus chrM: 7757-9382, vehicle 3627.88",2589.08 FPKM
same,"MARCKS FPKM, Cytochrome c oxidase subunit 3 mt-co3","locus chrM: 7757-9382, vehicle 5137.18",2736.25 FPKM
same,"Ln (Fold Change) (M/V), Mitochondrial NADH dehydrogenase subunit 3 mt-nd3",locus chrM: 9450-9798,0.5255
same,"Ln (Fold Change) (M/V), NU3M_RAT",locus chrM: 9450-9798,0.5255
same,"MARCKS FPKM, Mitochondrial NADH dehydrogenase subunit 3 mt-nd3",[1],324.46 FPKM
same,"MARCKS FPKM, NU3M_RAT",[1],324.46 FPKM
same,"Ln (Fold Change) (M/V), Mitochondrial NADH dehydrogenase subunit 4 mt-nd4",locus chrM: 9869-11537,0.6903
same,"Ln (Fold Change) (M/V), NADH dehydrogenase subunit 4L mt-ND4L",locus chrM: 9869-11537,0.7182
same,"MARCKS FPKM, Mitochondrial NADH dehydrogenase subunit 4 mt-nd4","locus chrM: 9869-11537, vehicle 2440.82",1684.95 FPKM
same,"MARCKS FPKM, NADH dehydrogenase subunit 4L mt-ND4L","locus chrM: 9869-11537, vehicle 5804.14",4168.41 FPKM
same,"Ln (Fold Change) (M/V), Mitochondrial NADH dehydrogenase subunit 5 mt-nd5",locus chrM: 11735-14061,0.8563
same,"Ln (Fold Change) (M/V), Mitochondrial NADH dehydrogenase subunit 6 mt-nd6",locus chrM: 11735-14061,0.4947
same,"MARCKS FPKM, Mitochondrial NADH dehydrogenase subunit 6 mt-nd6","locus chrM: 11735-14061, vehicle 1073.10",530.91 FPKM
same,"MARCKS FPKM, Mitochondrial NADH dehydrogenase subunit 5 mt-nd5","locus chrM: 11735-14061, vehicle 2920.80",2501.19 FPKM
same,"Ln (Fold Change) (M/V), Cytochrome b (mt-cyb)",locus chrM: 14135-15278,0.7536
same,"MARCKS FPKM, Cytochrome b (mt-cyb)","locus chrM: 14135-15278, vehicle 2792.49",2104.37 FPKM
same,"Ln (Fold Change) (M/V), Gdi1",locus chrX: 160299116-160305777,0.6667
same,"MARCKS FPKM, Gdi1","locus chrX: 160299116-160305777, vehicle 124.22",82.82 FPKM
